Test [1] concerns ovariectomized rats. Kind of test: Uterus growth test on ovariectomized rats (3-day treatment). Details: unit not given beside the values. The class given is in vivo, rat. The conditions noted are these: subcutaneously daily over 3 days. How it is done:
An in-depth description of the experiment was published (K. H., Fritzemeir, Ch. Hegele-Hartung (1999), Handbook of Pharmacol., Oettel, Schillinger eds., 135/II, 21:1-94). Ovariectomized rats were treated 10 days after ovariectomy with various dosages of the test substance or reference substance. The treatment was carried out subcutaneously daily over 3 days. On day 4, the animals were sacrificed, and the uterus moist and dry weights were determined.

For test [2], the system named is estrogen receptor preparations of rat prostates (rat prostate cytosol; ERβ predominates). Briefly: Estrogen receptor binding, rat prostate cytosol (competition with 3H-estradiol). The conditions noted are these: relative binding affinity, RBA of reference substance estradiol = 100. How it is done:
(§1) This patent application describes novel structures for selective estrogens, which have in vitro dissociation with respect to binding to estrogen receptor preparations of the rat uterus and rat prostate. In this case, it is assumed that ERα predominates in the rat uteri over ERβ, while ERβ predominates in the rat prostates over ERα.
(§2) The binding affinity of the new selective estrogens was tested in competitive tests with use of 3H-estradiol as a ligand in estrogen receptor preparations of rat prostates and rat uteri. The preparation of the prostate cytosol and the estrogen receptor test was performed with the prostate cytosol, as described by Testas et al. (1981) (Testsas, J. et al., 1981, Endocrinology 109:1287-1289).

For test [3], the target named is T1, estrogen receptor preparations of rat uteri (rat uterus cytosol; ERα predominates) (Rattus norvegicus, UniProt P06211).
T1 construct: The preparation of rat uterus cytosol, and the receptor test with the ER containing cytosol; from tissue; host or cells: rat uterus cytosol
T1 sequence (P06211 1-600): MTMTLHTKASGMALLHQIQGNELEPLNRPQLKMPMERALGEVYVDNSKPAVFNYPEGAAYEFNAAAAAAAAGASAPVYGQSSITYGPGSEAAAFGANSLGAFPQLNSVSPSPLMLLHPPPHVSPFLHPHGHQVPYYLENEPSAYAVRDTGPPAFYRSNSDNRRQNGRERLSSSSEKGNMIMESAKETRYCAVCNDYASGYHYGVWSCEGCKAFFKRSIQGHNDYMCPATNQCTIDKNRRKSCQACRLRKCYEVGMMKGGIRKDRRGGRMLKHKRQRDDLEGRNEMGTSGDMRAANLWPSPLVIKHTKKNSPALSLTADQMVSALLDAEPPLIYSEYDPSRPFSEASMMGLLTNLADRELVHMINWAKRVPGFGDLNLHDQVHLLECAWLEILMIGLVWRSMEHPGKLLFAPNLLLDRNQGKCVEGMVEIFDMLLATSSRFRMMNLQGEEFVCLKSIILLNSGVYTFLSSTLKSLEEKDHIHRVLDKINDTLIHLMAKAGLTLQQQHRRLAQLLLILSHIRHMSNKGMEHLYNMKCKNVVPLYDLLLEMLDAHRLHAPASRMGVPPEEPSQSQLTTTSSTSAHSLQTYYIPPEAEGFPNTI
Kind of test: Estrogen receptor binding, rat uterus cytosol (competition with 3H-estradiol). The conditions noted are these: relative binding affinity, RBA of reference substance estradiol = 100. How it is done: as §1, §2
The preparation of rat uterus cytosol, and the receptor test with the ER containing cytosol were performed basically as by Stack and Gorski, 1985 (Stack, Gorski 1985, Endocrinology 117, 2024-2032) with some modifications as described in Fuhrmann et al. (1995) (Fuhrmann U. et al. 1995, Contraception 51:45-52).

Consider `C[C@]12CC[C@@H]3c4ccc(O)cc4CC[C@H]3[C@@H]1C[C@H]1OC(=O)C[C@]12O` [3,17β-Dihydroxy-19-nor-17α-pregna-1,3,5(10)-triene-21,16α-lactone], for which the “Uterus Moist Weight [Mw ± SD]” value in test [1] (dosage 0.1 μg/kg) is listed as 23.7 ± 2.2; in test [1] (dosage 1 μg/kg), 60.1 ± 7.4; in test [1] (dosage 10 μg/kg), 95.9 ± 12.4. In addition, the “Rat Prostate Cytosol (RBA*)” value in test [2] is on record as less than 0.1. For the same compound, the “Rat Uterus Cytosol (RBA*)” value in test [3] is on record as 12.5.

Regarding `C[C@]12CC[C@@H]3c4ccc(O)cc4CC[C@H]3[C@@H]1CC[C@@H]2O` [17β-Estradiol, reference compound], the “Uterus Moist Weight [Mw ± SD]” value in test [1] (dosage 0.1 μg/kg) amounted to 28.0 ± 2.0; in test [1] (dosage 1 μg/kg) it was 71.9 ± 9.6; in test [1] (dosage 10 μg/kg) it was 82.3 ± 11.3.

Source of the values: patent publication US6670347B2, “19-nor-17α-pregna-1,3,5(10)-trien-17β-ols with a 21,16α-lactone ring” (Schering AG, priority 2000, dated 2003).
